Results reported in ChEMBL document CHEMBL2390939, “Synthesis and in vitro cytotoxicity of andrographolide-19-oic acid analogues as anti-cancer agents” (Bioorg Med Chem Lett, 2013).

How the values were obtained:
MCF7 = experiment: Cytotoxicity against human MCF7 cells assessed as growth inhibition after 72 hrs by MTS assay; type: functional, cell-based; conditions: MCF7, 72 h
HCT-116 [1] = experiment: Cytotoxicity against human HCT116 cells assessed as growth inhibition after 72 hrs by MTS assay; type: functional, cell-based; conditions: HCT-116, 72 h
HCT-116 [2] = experiment: Ratio of cis-platin IC50 to compound IC50 for growth inhibition of human HCT116 cells; type: functional

| SMILES | IC50 (MCF7) [µM] | IC50 (HCT-116 [1]) [µM] | Ratio IC50 (HCT-116 [2]) |
| --- | --- | --- | --- |
| C=C1CC[C@H]2[C@@](C)(CC[C@@H](OC(C)=O)[C@@]2(C)C(=O)OCc2ccccc2)[C@@H]1C/C=C1/C(=O)OC[C@H]1OC(=O)c1ccccc1 | 8.37 | 1.18 | 11 |
| C=C1CC[C@H]2[C@@](C)(CC[C@@H](O)[C@@]2(C)C(=O)O)[C@@H]1C/C=C1/C(=O)OC[C@H]1OC(C)=O | 33.3 | 25.2 | – |
| C=C1CC[C@H]2[C@@](C)(CC[C@@H](OC(C)=O)[C@@]2(C)C(=O)OCc2ccccc2)[C@@H]1C/C=C1/C(=O)OC[C@H]1OC(C)=O | 6.28 | 1.07 | – |
| C=C1CC[C@H]2[C@@](C)(CC[C@@H](OC(C)=O)[C@@]2(C)C(=O)O)[C@@H]1C/C=C1/C(=O)OC[C@H]1OC(C)=O | > 4.1 | 2.19 | – |
| C=C1CC[C@H]2[C@@](C)(CC[C@@H](OC(C)=O)[C@@]2(C)C(=O)OCc2ccccc2)[C@@H]1C/C=C1/C(=O)OC[C@H]1OC(=O)/C=C/c1ccc(OC)cc1 | 6.13 | 2.83 | – |
| C=C1CC[C@H]2[C@@](C)(CC[C@@H](OC(C)=O)[C@@]2(C)C(=O)OC)[C@@H]1C/C=C1/C(=O)OC[C@H]1OC(=O)/C=C/c1ccc(OC)cc1 | 14.5 | 2.78 | – |
| C=C1CC[C@H]2[C@@](C)(CC[C@@H](O)[C@@]2(C)C(=O)O)[C@@H]1C/C=C1/C(=O)OC[C@H]1OC(=O)c1ccccc1 | > 40.2 | 13.8 | – |
| C=C1CC[C@H]2[C@@](C)(CC[C@@H](OC(C)=O)[C@@]2(C)C(=O)O)[C@@H]1C/C=C1/C(=O)OC[C@H]1OC(=O)c1ccccc1 | 38.2 | 17.8 | – |
| C=C1CC[C@H]2[C@@](C)(CC[C@@H](O)[C@@]2(C)C(=O)O)[C@@H]1C/C=C1/C(=O)OC[C@H]1OC(=O)/C=C/c1ccc(OC)cc1 | 8.86 | 1.92 | – |
| C=C1CC[C@H]2[C@@](C)(CC[C@@H](OC(C)=O)[C@@]2(C)C(=O)O)[C@@H]1C/C=C1/C(=O)OC[C@H]1OC(=O)/C=C/c1ccc(OC)cc1 | 33.9 | 9.73 | – |
| C=C1CC[C@H]2[C@@](C)(CC[C@@H](OC(C)=O)[C@@]2(C)C(=O)OC)[C@@H]1C/C=C1/C(=O)OC[C@H]1OC(C)=O | 6.4 | 2.02 | – |
| C=C1CC[C@H]2[C@@](C)(CC[C@@H](OC(C)=O)[C@@]2(C)C(=O)OC)[C@@H]1C/C=C1/C(=O)OC[C@H]1OC(=O)c1ccccc1 | 10.6 | 3.01 | – |
| C=C1CC[C@@H]2[C@](C)(CO)[C@H](O)CC[C@@]2(C)[C@@H]1C/C=C1/C(=O)OC[C@H]1O [ANDROGRAPHOLIDE] | > 66 | 23.9 | – |
